The nature of experiment [1]: Inhibition of CK2.
Experiment [2] is described as follows: Inhibition of CK2 expressed in HEK293 cells by SRE-luciferase reporter gene assay. It counts as cell-based. On the technique in general: In a reporter assay the amount or activity of a reporter protein is the signal.
Experiment [3] is described as follows: Selectivity ratio of IC50 for p38beta2 to CK2.
Another experiment relates to Rattus norvegicus. The experiment in a line: Antinephritic activity in anti-GBM glomerulonephritis Wistar-Kyoto rat model assessed as improved proteinuria at 15 mg/kg, ip qd measured at day 7 by pyrogallol Red method. The experiment is classed as functional, organism-based. Also noted: dose 15 mg/kg.
The nature of experiment [4]: Selectivity ratio of IC50 for PKC to CK2.
A short description of experiment [5]: Selectivity ratio of IC50 for CAMK2 to CK2.
A short description of experiment [6]: Selectivity ratio of IC50 for S6 kinase to CK2.
Experiment [7] is described as follows: Selectivity ratio of IC50 for PKA to CK2.
The nature of experiment [8]: Selectivity ratio of IC50 for ERK to CK2.

pIC50: −log10 of the molar value. Calls of active or inactive are those of the source. The calls are words filed in the database; no cut-off is given here. Bounds are passed on as bounds.

One may read the pIC50 as −log10 of the IC50, conventionally taken in molar units. A high value points to a low IC50. The compound `O=C(O)Cc1cn(-c2cncc(-n3cccc3)n2)c2ccccc12` had a pIC50 in experiment [1] of 5.52.
In the case of `O=C(O)Cc1ccn(-c2cncc(-n3nc(Cl)c4ccccc43)n2)c1`, the values for the negative-log IC50 (pIC50) in [1] and in experiment [2] were 7.92 and 4.52, respectively.
In experiment [1], `O=C(O)Cc1ccn(-c2cncc(-n3cnc4ccccc43)n2)c1` showed a negative-log IC50 (pIC50) of 7.00.
Same read-out and setting: with `Cc1cc(O)c2c(c1)C(=O)c1cc(O)cc(O)c1C2=O` [EMODIN] the figure was 5.70; with `O=C(O)Cc1cn(-c2cncc(-n3cc(CC(=O)O)c4ccccc43)n2)c2ccccc12`, 6.52; with `O=C(O)Cc1c2ccccc2n2c1[nH]c(=O)c1ccccc12`, 7.10.
The same measure, in the same setting: the same measure for `Nc1ccc2cnn(-c3cncc(-n4ccc(CC(=O)O)c4)n3)c2c1`: 7.60.
Turning to `N#Cc1ccc2cnn(-c3cncc(-n4ccc(CC(=O)O)c4)n3)c2c1`, the pIC50 in experiment [1] is 7.66; in [2] it was 4.96.
The matching figures for `Nc1nn(-c2cncc(-n3ccc(CC(=O)O)c3)n2)c2ccccc12`: 8.10 and 4.82.
`O=C(O)Cc1ccn(-c2cncc(-n3ncc4ccc(NC5CCCC5)cc43)n2)c1`: the Ratio IC50 in experiment [3] is over 740; in experiment [4], over 740; in [5], 162; in experiment [6], 626; in [7], over 740; in experiment [8] it was over 740. Also, in the experiment on Rattus norvegicus, the result was Active. In addition, the negative logarithm of the IC50 (pIC50) in experiment [1] is 8.03; in [2], 6.05.
`O=C(O)Cc1ccn(-c2cncc(-n3ccc4ccccc43)n2)c1` showed a pIC50 in [1] of 7.00.
On to `CC(C)Nc1ccc2cnn(-c3cncc(-n4ccc(CC(=O)O)c4)n3)c2c1`, for which the negative logarithm of the IC50 (pIC50) was 8.10 in [1] and 6.00 in experiment [2].
In experiment [1], `O=C(O)Cc1ccn(-c2cncc(-n3ncc4ccccc43)n2)c1` had a pIC50 of 7.52.
As for `O=C(O)Cc1ccn(-c2cncc(-n3ncc4ccc(Cl)cc43)n2)c1`, the pIC50 is 7.80 in experiment [1] and 5.40 in [2].
`O=C(O)Cc1ccn(-c2cncc(N3CCc4ccccc43)n2)c1` had a negative logarithm of the IC50 (pIC50) in [1] of 7.30.
Same read-out and setting: the same measure for `O=C(O)Cc1cn(-c2cncc(-n3ccc4ccccc43)n2)c2ccccc12`: 6.30.

The values above are taken from ChEMBL document CHEMBL2046363, “Discovery and structure-activity relationship of 2,6-disubstituted pyrazines, potent and selective inhibitors of protein kinase CK2” (Bioorg Med Chem Lett, 2012).
